Source: patent US10576062B2, “Carbamoyloxymethyl triazole cyclohexyl acids as LPA antagonists” (Bristol-Myers Squibb Company, priority 2016, dated 2020)

Molecular target: T1, human LPA1 (Homo sapiens, UniProt Q92633)
T1 construct: expressed in transfected cells; host or cells: Chinese hamster ovary (CHO) cells
Assay: LPA1 functional antagonist assay (LPA-induced calcium flux)
Assay type: cell-based
Conditions: CHO cells overexpressing human LPA1; inhibition of calcium flux induced by 10 nM LPA; read-out: hLPA1 IC50
Procedure, shortened: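 CHO cells overexpressing human LPA1, loaded with calcium dye 30 min at 37° C, were preincubated 20 min at room temperature with compound (0.08 nM–5 μM, 0.5% DMSO) in HBSS/20 mM HEPES/0.1% fatty acid-free BSA.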

T1 sequence (Q92633 whole entry): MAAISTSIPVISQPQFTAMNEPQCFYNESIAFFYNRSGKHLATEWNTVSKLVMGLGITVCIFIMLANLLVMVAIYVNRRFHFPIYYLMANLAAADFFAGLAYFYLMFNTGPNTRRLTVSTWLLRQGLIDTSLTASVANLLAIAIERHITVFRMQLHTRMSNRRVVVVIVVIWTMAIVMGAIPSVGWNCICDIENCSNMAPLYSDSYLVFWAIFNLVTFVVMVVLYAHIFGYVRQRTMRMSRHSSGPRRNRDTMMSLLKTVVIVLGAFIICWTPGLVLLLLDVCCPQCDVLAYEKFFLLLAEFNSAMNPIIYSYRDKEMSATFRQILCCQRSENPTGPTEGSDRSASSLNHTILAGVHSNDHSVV

SMILES	IC50
CCCOCCN(C)C(=O)OCc1c(-c2ccc(O[C@H]3CCC[C@H](C(=O)O)C3)c(C)n2)nnn1C [Example 250, (1S,3S)-3-((2-methyl-6-(1-methyl-5-(((methyl(2-propoxyethyl)carbamoyl)oxy)methyl)-1H-1,2,3-triazol-4-yl)pyridin-3-yl)oxy)cyclohexane-1-carboxylic acid]	314 nM
C[C@@H]1C[C@H]1CN(C)C(=O)OCc1c(-c2ccc(O[C@H]3CCC[C@H](C(=O)O)C3)cn2)nnn1C [Example 251, (1S,3S)-3-((6-(1-methyl-5-(((methyl(((1R,2R)-2-methylcyclopropyl)methyl)carbamoyl)oxy)methyl)-1H-1,2,3-triazol-4-yl)pyridin-3-yl)oxy)cyclohexane-1-carboxylic acid]	27 nM
C[C@H]1C[C@@H]1CN(C)C(=O)OCc1c(-c2ccc(O[C@H]3CCC[C@H](C(=O)O)C3)cn2)nnn1C [Example 252, (1S,3S)-3-((6-(1-methyl-5-(((methyl(((1S,2S)-2-methylcyclopropyl)methyl)carbamoyl)oxy)methyl)-1H-1,2,3-triazol-4-yl)pyridin-3-yl)oxy)cyclohexane-1-carboxylic acid]	29 nM
Cc1nc(-c2nnn(C)c2COC(=O)N(C)CC(C)(C)F)ccc1O[C@H]1CCC[C@H](C(=O)O)C1 [Example 253, (1S,3S)-3-((6-(5-((((2-fluoro-2-methylpropyl)(methyl)carbamoyl)oxy)methyl)-1-methyl-1H-1,2,3-triazol-4-yl)-2-methylpyridin-3-yl)oxy)cyclohexane-1-carboxylic acid]	134 nM
Cc1nc(-c2nnn(C)c2COC(=O)N(C)CCCC(C)F)ccc1O[C@H]1CCC[C@H](C(=O)O)C1 (stereo partly drawn) [Example 256, (1S,3S)-3-((6-(5-((((4-fluoropentyl)(methyl)carbamoyl)oxy)methyl)-1-methyl-1H-1,2,3-triazol-4-yl)-2-methylpyridin-3-yl)oxy)cyclohexane-1-carboxylic acid]	17 nM
Cc1nc(-c2nnn(C)c2COC(=O)N(C)C[C@@H]2C[C@H]2C)ccc1O[C@H]1CCC[C@H](C(=O)O)C1 [Example 257, (1S,3S)-3-((2-methyl-6-(1-methyl-5-(((methyl(((1R,2R)-2-methylcyclopropyl)methyl)carbamoyl)oxy)methyl)-1H-1,2,3-triazol-4-yl)pyridin-3-yl)oxy)cyclohexane-1-carboxylic Acid]	18 nM
Cc1nc(-c2nnn(C)c2COC(=O)N(C)CC(C)(F)F)ccc1O[C@H]1CCC[C@H](C(=O)O)C1 [Example 259, (1S,3 S)-3-((6-(5-((((2,2-difluoropropyl)(methyl)carbamoyl)oxy)methyl)-1-methyl-1H-1,2,3-triazol-4-yl)-2-methylpyridin-3-yl)oxy)cyclohexane-1-carboxylic Acid]	134 nM
Cc1nc(-c2nnn(C)c2COC(=O)N(C)CCC(C)F)ccc1O[C@H]1CCC[C@H](C(=O)O)C1 (stereo partly drawn) [Example 260, (1S,3 S)-3-((6-(5-((((3-fluorobutyl)(methyl)carbamoyl)oxy)methyl)-1-methyl-1H-1,2,3-triazol-4-yl)-2-methylpyridin-3-yl)oxy)cyclohexane-1-carboxylic Acid]	50 nM
Cc1nc(-c2nnn(C)c2COC(=O)N(C)CC(C)F)ccc1O[C@H]1CCC[C@H](C(=O)O)C1 (stereo partly drawn) [Example 261, (1S,3S)-3-((6-(5-((((2-fluoropropyl)(methyl)carbamoyl)oxy)methyl)-1-methyl-1H-1,2,3-triazol-4-yl)-2-methylpyridin-3-yl)oxy)cyclohexane-1-carboxylic acid]	145 nM
Cc1nc(-c2nnn(C)c2COC(=O)N(C)CC2CC2C)ccc1O[C@H]1CCC[C@H](C(=O)O)C1 (stereo partly drawn) [Example 262, (1S,3S)-3-((2-methyl-6-(1-methyl-5-(((methyl((2-methylcyclopropyl)methyl)carbamoyl)oxy)methyl)-1H-1,2,3-triazol-4-yl)pyridin-3-yl)oxy)cyclohexane-1-carboxylic acid]	29 nM
Cc1nc(-c2nnn(C)c2COC(=O)N(C)CC2(C)CC2)ccc1O[C@H]1CCC[C@H](C(=O)O)C1 [Example 263, (1S,3S)-3-((2-methyl-6-(1-methyl-5-(((methyl((1-methylcyclopropyl)methyl)carbamoyl)oxy)methyl)-1H-1,2,3-triazol-4-yl)pyridin-3-yl)oxy)cyclohexane-1-carboxylic acid]	76 nM
Cc1nc(-c2nnn(C)c2COC(=O)N(C)CC(C)(C)C)ccc1O[C@H]1CCC[C@H](C(=O)O)C1 [Example 264, (1S,3S)-3-((2-methyl-6-(1-methyl-5-(((methyl(neopentyl)carbamoyl)oxy)methyl)-1H-1,2,3-triazol-4-yl)pyridin-3-yl)oxy)cyclohexane-1-carboxylic acid]	76 nM
CN(CC1CCC1)C(=O)OCc1c(-c2ccc(O[C@H]3CCC[C@H](C(=O)O)C3)c(CO)n2)nnn1C [Example 265, (1S,3 S)-3-((6-(5-((((cyclobutylmethyl)(methyl)carbamoyl)oxy)methyl)-1-methyl-1H-1,2,3-triazol-4-yl)-2-(hydroxymethyl)pyridin-3-yl)oxy)cyclohexane-1-carboxylic Acid]	68 nM
CN(CC1CCC1)C(=O)OCc1c(-c2ccc(O[C@H]3CCC[C@H](C(=O)O)C3)c(CF)n2)nnn1C [Example 266, (1S,3 S)-3-((6-(5-((((cyclobutylmethyl)(methyl)carbamoyl)oxy)methyl)-1-methyl-1H-1,2,3-triazol-4-yl)-2-(fluoromethyl)pyridin-3-yl)oxy)cyclohexane-1-carboxylic Acid]	27 nM
COCc1nc(-c2nnn(C)c2COC(=O)N(C)CC2CCC2)ccc1O[C@H]1CCC[C@H](C(=O)O)C1 [Example 268, (1S,3 S)-3-((6-(5-((((cyclobutylmethyl)(methyl)carbamoyl)oxy)methyl)-1-methyl-1H-1,2,3-triazol-4-yl)-2-(methoxymethyl)pyridin-3-yl)oxy)cyclohexane-1-carboxylic Acid]	103 nM
CN(CC1CCC1)C(=O)OCc1c(-c2ccc(O[C@H]3CCC[C@H](C(=O)O)C3)c(C(F)(F)F)n2)nnn1C [Example 269, (1S,3 S)-3-((6-(5-((((cyclobutylmethyl)(methyl)carbamoyl)oxy)methyl)-1-methyl-1H-1,2,3-triazol-4-yl)-2-(trifluoromethyl)pyridin-3-yl)oxy)cyclohexane-1-carboxylic Acid]	10 nM
CCCN(C)C(=O)OCc1c(-c2ccc(O[C@H]3CCC[C@H](C(=O)O)C3)c(C#N)n2)nnn1C [Example 270, (1S,3S)-3-((2-cyano-6-(1-methyl-5-(((methyl(propyl)carbamoyl)oxy)methyl)-1H-1,2,3-triazol-4-yl)pyridin-3-yl)oxy)cyclohexane-1-carboxylic acid]	11 nM
CN(CC1CCC1)C(=O)OCc1c(-c2ccc(O[C@H]3CCC[C@H](C(=O)O)C3)c(C(C)(C)O)n2)nnn1C [Example 271, (1S,3 S)-3-((6-(5-((((cyclobutylmethyl)(methyl)carbamoyl)oxy)methyl)-1-methyl-1H-1,2,3-triazol-4-yl)-2-(2-hydroxypropan-2-yl)pyridin-3-yl)oxy)cyclohexane-1-carboxylic Acid]	225 nM
CCCN(C)C(=O)OCc1c(-c2ccc(O[C@H]3CCC[C@H](C(=O)O)C3)c(OC)n2)nnn1C [Example 272, (1S,3 S)-3-((2-Methoxy-6-(1-methyl-5-(((methyl(propyl)carbamoyl)oxy)methyl)-1H-1,2,3-triazol-4-yl)pyridin-3-yl)oxy)cyclohexane-1-carboxylic Acid]	4 nM
CN(CC1CC1)C(=O)OCc1c(-c2ccc(O[C@H]3CCC[C@H](C(=O)O)C3)c(C(F)(F)F)n2)nnn1C [Example 273, (1S,3S)-3-((6-(5-((((cyclopropylmethyl)(methyl)carbamoyl)oxy)methyl)-1-methyl-1H-1,2,3-triazol-4-yl)-2-(trifluoromethyl)pyridin-3-yl)oxy)cyclohexane-1-carboxylic acid]	7 nM
CCCN(C)C(=O)OCc1c(-c2ccc(O[C@H]3CCC[C@H](C(=O)O)C3)c(C(F)(F)F)n2)nnn1C [Example 274, (1S,3S)-3-((6-(1-methyl-5-(((methyl(propyl)carbamoyl)oxy)methyl)-1H-1,2,3-triazol-4-yl)-2-(trifluoromethyl)pyridin-3-yl)oxy)cyclohexane-1-carboxylic acid]	28 nM
CCCCN(C)C(=O)OCc1c(-c2ccc(O[C@H]3CCC[C@H](C(=O)O)C3)c(C(F)(F)F)n2)nnn1C [Example 275, (1S,3S)-3-((6-(5-(((butyl(methyl)carbamoyl)oxy)methyl)-1-methyl-1H-1,2,3-triazol-4-yl)-2-(trifluoromethyl)pyridin-3-yl)oxy)cyclohexane-1-carboxylic acid]	5.6 nM
CN(C(=O)OCc1c(-c2ccc(O[C@H]3CCC[C@H](C(=O)O)C3)c(C(F)(F)F)n2)nnn1C)C1CCCC1 [Example 276, (1S,3S)-3-((6-(5-(((cyclopentyl(methyl)carbamoyl)oxy)methyl)-1-methyl-1H-1,2,3-triazol-4-yl)-2-(trifluoromethyl)pyridin-3-yl)oxy)cyclohexane-1-carboxylic acid]	15 nM
CCCN(C)C(=O)OCc1c(-c2ccc(O[C@H]3CCC[C@H](C(=O)O)C3)c(C(F)F)n2)nnn1C [Example 277, (1S,3S)-3-((2-(difluoromethyl)-6-(1-methyl-5-(((methyl(propyl)carbamoyl)oxy)methyl)-1H-1,2,3-triazol-4-yl)pyridin-3-yl)oxy)cyclohexane-1-carboxylic acid]	35 nM
CCCCN(C)C(=O)OCc1c(-c2ccc(O[C@H]3CCC[C@H](C(=O)O)C3)c(C(F)F)n2)nnn1C [Example 278, (1S,3S)-3-((6-(5-(((butyl(methyl)carbamoyl)oxy)methyl)-1-methyl-1H-1,2,3-triazol-4-yl)-2-(difluoromethyl)pyridin-3-yl)oxy)cyclohexane-1-carboxylic acid]	22 nM
